Source: US20100209345A1, “Fluorinated Ligands for Targeting Peripheral Benzodiazepine Receptors” (Australian Nuclear Science & Technology Organisation, priority 2006, published 2010)
Entries after “also recorded” stand apart in the source; their conditions may differ.

Columns and labels:
[1] = target: T1, peripheral benzodiazepine receptors (Rattus norvegicus, UniProt P16257); assay: In vivo blocking / competition of tracer uptake by pre-treatment with PBR and CBR ligands; details: rats; for Tracer uptake after pre-treatment with PK 11195 / Tracer uptake in the adrenals after pre-treatment with PK 11195: PK 11195 1 mg/kg 5 min prior to tracer; for Tracer uptake after pre-treatment with PK 11195 / Tracer uptake after pre-treatment with Ro 5-4864: PBR-expressing tissues (brain/peripheral organs, adrenals apart); for Tracer uptake after pre-treatment with Ro 5-4864 / Tracer uptake in the adrenals after pre-treatment with Ro 5-4864: Ro 5-4864 1 mg/kg 5 min prior to tracer; for Tracer uptake after pre-treatment with flumazenil (central benzodiazepine ligand): flumazenil 1 mg/kg 5 min prior to tracer, brain or peripheral organs; for Tracer uptake after pre-treatment with the non-radioactive analogue: non-radioactive analogue 1 mg/kg, PBR-expressing tissues
T1 construct: high uptake in the tissues which have known PBR sites; from tissue; host or cells: organs of living SD rats (brain and peripheral tissues), in vivo
How it was run: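 SD rats received PBR ligands PK11195 or Ro 5-4864, or the CBR ligand flumazenil, at 1 mg/kg 5 min before tracer injection. Brain and peripheral tissue uptake analysed at 15, 30 min, 1 and 4 h p.i.; significance set at p<0.05 and p<0.01 versus normals or controls.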

[2] = target: central benzodiazepine receptors; assay: In vitro binding, [3H]-Flumazenil, brain cortex membrane preparation; details: [3H]-Flumazenil (2 nM), 25° C., 45 min, read-out: CBR IC50
How it was run: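 Brain cortex membranes bound with [3H]-flumazenil; non-specific binding defined by 20 μM flumazenil. Filtration on GF/B, washes in ice-cold 50 mM Tris/HCl pH 7.4, bound counts by scintillation, IC50 derived from displacement.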

| Compound | Tracer uptake after pre-treatment with PK 11195 [1] | Tracer uptake after pre-treatment with PK 11195 ([1]; listed as [^18F]PBR102) | Tracer uptake in the adrenals after pre-treatment with PK 11195 [1] | Tracer uptake after pre-treatment with Ro 5-4864 [1] | Tracer uptake after pre-treatment with Ro 5-4864 ([1]; listed as [^18F]PBR102) | Tracer uptake in the adrenals after pre-treatment with Ro 5-4864 [1] | Tracer uptake after pre-treatment with flumazenil (central benzodiazepine ligand) [1] | Tracer uptake after pre-treatment with flumazenil (central benzodiazepine ligand) ([1]; listed as [^18F]PBR102) | Tracer uptake after pre-treatment with the non-radioactive analogue [1] | IC50 [2] [µM] | chromatographic logP (LogP HPLC) | Tracer uptake in the olfactory regions after pre-treatment with PK 11195 and Ro 5-4864 ([1]; 1 mg/kg 5 min prior to tracer, olfactory regions) | Tracer uptake after pre-treatment with PK 11195 ([1]; listed as [^18F]PBR111) | Tracer uptake after pre-treatment with Ro 5-4864 ([1]; listed as [^18F]PBR111) | Tracer uptake after pre-treatment with flumazenil (central benzodiazepine ligand) ([1]; listed as [^18F]PBR111) | Tracer uptake after pre-treatment with the non-radioactive analogue ([1]; listed as [^18F]PBR111) |
| --- | --- | --- | --- | --- | --- | --- | --- | --- | --- | --- | --- | --- | --- | --- | --- | --- |
| CCN(CC)C(=O)Cc1c(-c2ccc(OCCF)cc2)nc2ccc(Cl)cn12 [PBR102, 2-(2-(4-(2-fluoroethoxy)phenyl)-6-chloroimidazo[1,2-a]pyridin-3-yl)-N,N-diethylacetamide] | decreased | blocking effect | increase | decreased | blocking effect | increase | no effect | does not reduce | blocking effect | 1.56 | 2.7 ± 0.09 | – | – | – | – | – |
| CCN(CC)C(=O)Cc1c(-c2ccc(OCCCF)cc2)nc2ccc(Cl)cn12 [PBR111, 2-(2-(4-(3-fluoropropoxy)phenyl)-6-chloroimidazo[1,2-a]pyridin-3-yl)-N,N-diethylacetamide] | decreased | – | increase | decreased | – | increase | no effect | – | – | 1.59 | 3.2 ± 0.1 | non-significant decrease | reduced uptake; also recorded: blocking effect | reduced uptake; also recorded: blocking effect | does not compete; also recorded: does not reduce | reduced uptake; also recorded: blocking effect |
